Counter-ions that a name gives are not always drawn.
These compounds were tested on Acinetobacter baumannii ATCC17978 (assay: Antimicrobial susceptibility testing: 90% growth inhibitory concentration (IC90) determination). Details: 90% growth inhibitory concentration, Acinetobacter baumannii ATCC17978, Iso-Sensitest broth, OD 600 nm over 16 h; formate salt; read-out: ATCC17978 IC90.
Assay type: cell-based
Protocol: The in vitro antimicrobial activity of the compounds was determined according to the following procedure:
The assay used a 10-points Iso-Sensitest broth medium to measure quantitatively the in vitro activity of the compounds against Acinetobacter baumannii ATCC17978 and Acinetobacter baumannii ATCC17961.
Stock compounds in DMSO were serially twofold diluted (e.g. range from 50 to 0.097 μM final concentration) in 384 wells microtiter plates and inoculated with 49 μl the bacterial suspension in Iso-Sensitest medium to have a final cell concentration of ˜5×10^(5) CFU/ml in a final volume/well of 50 ul/well. Microtiter plates were incubated at 35±2° C.
Bacterial cell growth was determined with the measurement of optical density at λ=600 nm each 20 minutes over a time course of 16 h. Growth inhibition was calculated during the logarithmic growth of the bacterial cells with determination of the concentration inhibiting 50% (IC50) and 90% (IC90) of the growth.
Table 1 provides the 90% growth inhibitory concentrations (IC90) in micromoles per liter of the compounds of present invention obtained against the strain Acinetobacter baumannii ATCC17978 and Acinetobacter baumannii ATCC17961.

Compound | IC90
COc1ccc(-c2cnc3c(Nc4ccc(C(=O)N5CCC(C(=O)N6CCNC(C(=O)O)C6)CC5)c(Cl)c4)nccn23)cc1F (stereo not shown) [Example 2, 4-(1-(2-chloro-4-((3-(3-fluoro-4-methoxyphenyl)imidazo [1,2-a]pyrazin-8-yl)amino)benzoyl)piperidine-4-carbonyl) piperazine-2-carboxylic acid, formate salt] | 470 nM

Same assay, conditions: 90% growth inhibitory concentration, Acinetobacter baumannii ATCC17978, Iso-Sensitest broth, OD 600 nm over 16 h; read-out: ATCC17978 IC90

Compound | IC90
COc1ccc(-c2cnc3c(Nc4ccc(C(=O)N5CCN(CCN(C)C)CC5)c(Cl)c4)nccn23)cc1F [Example 3, (2-Chloro-4-((3-(3-fluoro-4-methoxyphenyl)imidazo[1,2-a]pyrazin-8-yl)amino)phenyl)(4-(2-(dimethylamino)ethyl)piperazin-1-yl)methanone] | 120 nM
COc1ccc(-c2cnc3c(Nc4ccc(C(=O)N5CCC(C(=O)NCC6CNC6)CC5)c(Cl)c4)nccn23)cc1F [Example 19, N-(azetidin-3-ylmethyl)-1-(2-chloro-4-((3-(3-fluoro-4-methoxyphenyl)imidazo[1,2-a]pyrazin-8-yl)amino)benzoyl)piperidine-4-carboxamide] | 300 nM

Same assay, conditions: Acinetobacter baumannii, ATCC17978, 16 h, 90% growth inhibitory concentration, Acinetobacter baumannii ATCC17978, Iso-Sensitest broth, OD 600 nm over 16 h; read-out: ATCC17978 IC90

Compound | IC90
COc1ccc(-c2cnc3c(Nc4ccc(C(=O)N5CCNC(C(=O)O)C5)c(Cl)c4)nccn23)c(F)c1F (stereo not shown) [Example 1, 4-(2-chloro-4-((3-(2,3-difluoro-4-methoxyphenyl)imidazo[1,2-a]pyrazin-8-yl)amino)benzoyl)piperazine-2-carboxylic Acid] | 1900 nM
COc1ccc(-c2cnc3c(Nc4ccc(C(=O)N5CCC(CN)CC5)c(Cl)c4)nccn23)cc1F [Example 4, (4-(Aminomethyl)piperidin-1-yl)(2-chloro-4-((3-(3-fluoro-4-methoxyphenyl)imidazo[1,2-a]pyrazin-8-yl)amino)phenyl)methanone hydrochloride] | 120 nM
NCC1CCN(C(=O)c2ccc(Nc3nccn4c(-c5ccc(OC(F)F)cc5)cnc34)cc2Br)CC1 [Example 5, (4-(aminomethyl)piperidin-1-yl)(2-bromo-4-((3-(4-(difluoromethoxy)phenyl)imidazo[1,2-a]pyrazin-8-yl)amino)phenyl)methanone hydrochloride] | 140 nM
COc1ccc(-c2cnc3c(Nc4ccc(C(=O)N5CCC(CCN)CC5)c(Cl)c4)nccn23)c(F)c1F [Example 7, (4-(2-aminoethyl)piperidin-1-yl)(2-chloro-4-((3-(2,3-difluoro-4-methoxyphenyl)imidazo[1,2-a]pyrazin-8-yl)amino)phenyl)methanone] | 100 nM
COc1ccc(-c2cnc3c(Nc4ccc(C(=O)N5CCC(CN)CC5)c(Cl)c4)nccn23)c(F)c1F [Example 8, (4-(aminomethyl)piperidin-1-yl)(2-chloro-4-((3-(2,3-difluoro-4-methoxyphenyl)imidazo[1,2-a]pyrazin-8-yl)amino)phenyl)methanone] | 170 nM
COc1ccc(-c2cnc3c(Nc4ccc(C(=O)N5CC5)c(Cl)c4)nccn23)c(F)c1F [Example 9, aziridin-1-yl(2-chloro-4-((3-(2,3-difluoro-4-methoxyphenyl)imidazo[1,2-a]pyrazin-8-yl)amino)phenyl)methanone] | 1600 nM
CN(C)CCN1CCN(C(=O)c2ccc(Nc3nccn4c(-c5ccc(OCC#N)c(F)c5F)cnc34)cc2Cl)CC1 [Example 10, 2-(4-(8-((3-chloro-4-(4-(2-(dimethylamino)ethyl)piperazine-1-carbonyl)phenyl)amino)imidazo[1,2-a]pyrazin-3-yl)-2,3-difluorophenoxy)acetonitrile] | 64 nM
N#CCOc1ccc(-c2cnc3c(Nc4ccc(C(=O)N5CCC(c6cnc[nH]6)CC5)c(Cl)c4)nccn23)c(F)c1F [Example 11, 2-[4-[8-[3-chloro-4-[4-(1H-imidazol-5-yl)piperidine-1-carbonyl]anilino]imidazo[1,2-a]pyrazin-3-yl]-2,3-difluoro-phenoxy]acetontrile; 2,2,2-trifluoroacetic acid] | 140 nM
N#CCOc1ccc(-c2cnc3c(Nc4ccc(C(=O)N5CCC(CN)CC5)c(Cl)c4)nccn23)c(F)c1F [Example 12, 2-(4-(8-((4-(4-(aminomethyl)piperidine-1-carbonyl)-3-chlorophenyl)amino)imidazo[1,2-a]pyrazin-3-yl)-2,3-difluorophenoxy)acetonitrile] | 49 nM
N#CCOc1ccc(-c2cnc3c(Nc4ccc(C(=O)N5CCC(c6nnn[nH]6)CC5)c(Cl)c4)nccn23)c(F)c1F [Example 13, 2-[4-[8-[3-chloro-4-[4-(1H-tetrazol-5-yl)piperidine-1-carbonyl]anilino]imidazo[1,2-a]pyrazin-3-yl]-2,3-difluoro-phenoxy]acetonitrile;2,2,2-trifluoroacetic acid] | 280 nM
N#CCOc1cc(Cl)c(-c2cnc3c(Nc4ccc(C(=O)N5CCC(C(=O)N6CCNC(CO)C6)CC5)c(Cl)c4)nccn23)cc1F (stereo not shown) [Example 15, 2-[5-chloro-4-[8-[3-chloro-4-[4-[3-(hydroxymethyl)piperazine-1-carbonyl]piperidine-1-carbonyl]anilino]imidazo[1,2-a]pyrazin-3-yl]-2-fluoro-phenoxy]acetonitrile; 2,2,2-trifluoroacetic] | 110 nM
CNCC(=O)N1CCN(C(=O)c2ccc(Nc3nccn4c(-c5ccc(OC)c(F)c5)cnc34)cc2Cl)CC1 [Example 18, 1-(4-(2-chloro-4-((3-(3-fluoro-4-methoxyphenyl)imidazo[1,2-a]pyrazin-8-yl)amino)benzoyl)piperazin-1-yl)-2-(methylamino)ethan-1-one hydrochloride] | 180 nM
CNCCN1CCN(C(=O)c2ccc(Nc3nccn4c(-c5ccc(OC)c(F)c5)cnc34)cc2Cl)CC1 [Example 20, (2-chloro-4-((3-(3-fluoro-4-methoxyphenyl)imidazo[1,2-a]pyrazin-8-yl)amino)phenyl)(4-(2-(methylamino)ethyl)piperazin-1-yl)methanone] | 130 nM
N#CCOc1ccc(-c2cnc3c(Nc4ccc(C(=O)N5CCC(c6ccncc6)CC5)c(Cl)c4)nccn23)c(F)c1F [Example 21, 2-[4-[8-[3-chloro-4-[4-(4-pyridyl)piperidine-1-carbonyl]anilino]imidazo[1,2-a]pyrazin-3-yl]-2,3-difluoro-phenoxy]acetonitrile] | 870 nM
N#CCOc1ccc(-c2cnc3c(Nc4ccc(C(=O)N5CCN(c6ncccn6)CC5)c(Cl)c4)nccn23)c(F)c1F [Example 22, 2-[4-[8-[3-chloro-4-(4-pyrimidin-2-ylpiperazine-1-carbonyl)anilino]imidazo[1,2-a]pyrazin-3-yl]-2,3-difluoro-phenoxy]acetonitrile] | 690 nM
Cn1cnnc1C1CCN(C(=O)c2ccc(Nc3nccn4c(-c5ccc(OCC#N)c(F)c5F)cnc34)cc2Cl)CC1 [Example 23, 2-[4-[8-[3-chloro-4-[4-(4-methyl-1,2,4-triazol-3-yl)piperidine-1-carbonyl]anilino]imidazo[1,2-a]pyrazin-3-yl]-2,3-difluoro-phenoxy]acetonitrile; 2,2,2-trifluoroacetic acid] | 160 nM
N#CCOc1ccc(-c2cnc3c(Nc4ccc(C(=O)N5CCC(n6cnnc6)CC5)c(Cl)c4)nccn23)c(F)c1F [Example 24, 2-[4-[8-[3-chloro-4-[4-(1,2,4-triazol-4-yl)piperidine-1-carbonyl]anilino]imidazo[1,2-a]pyrazin-3-yl]-2,3-difluoro-phenoxy]acetonitrile] | 150 nM
CN(C)CCNC1CCN(C(=O)c2ccc(Nc3nccn4c(-c5ccc(OCC#N)c(F)c5Cl)cnc34)cc2Cl)CC1 [Example 25, 2-[3-chloro-4-[8-[3-chloro-4-[4-[2-(dimethylamino)ethylamino]piperidine-1-carbonyl]anilino]imidazo[1,2-a]pyrazin-3-yl]-2-fluorophenoxy]acetonitrile; 2,2,2-trifluoroacetic acid] | 79 nM
N#CCOc1ccc(-c2cnc3c(Nc4ccc(C(=O)N5CCN(CCN6CCCC6)CC5)c(Cl)c4)nccn23)c(Cl)c1F [Example 26] | 86 nM

Same assay, conditions: Acinetobacter baumannii, ATCC17978, 16 h, read-out: ATCC17978 IC90

Compound | IC90
CN(C)CC1CCN(C(=O)c2ccc(Nc3nccn4c(-c5ccc(OCC#N)c(F)c5Cl)cnc34)cc2Cl)CC1 [Example 6, 2-[3-chloro-4-[8-[3-chloro-4-[4-[(dimethylamino)methyl]piperidine-1-carbonyl]anilino]imidazo[1,2-a]pyrazin-3-yl]-2-fluoro-phenoxy]acetonitrile; formic acid] | 110 nM
CN(C)CC(=O)N1CCN(C(=O)c2ccc(Nc3nccn4c(-c5ccc(OCC#N)c(F)c5F)cnc34)cc2Cl)CC1 [Example 14, 2-[4-[8-[3-chloro-4-[4-[2-(dimethylamino)acetyl]piperazine-1-carbonyl]anilino]imidazo[1,2-a]pyrazin-3-yl]-2,3-difluoro-phenoxy]acetonitrile; 2,2,2-trifluoroacetic acid] | 28 nM
CNCCNC(=O)C1CCN(C(=O)c2ccc(Nc3nccn4c(-c5ccc(OC)c(F)c5)cnc34)cc2Cl)CC1 [Example 16, 1-(2-chloro-4-((3-(3-fluoro-4-methoxyphenyl)imidazo[1,2-a]pyrazin-8-yl)amino)benzoyl)-N-(2-(methylamino)ethyl)piperidine-4-carboxamide hydrochloride] | 100 nM
